Molecular target: T1, human somatostatin receptor subtype 5 (Homo sapiens, UniProt P35346)
T1 construct: expressed in transfected cells
Experiment: cAMP assay for SST5R (inhibition of cAMP in CHO-K1 cells)
Assay type: cell-based
Settings: Table A; inhibition of cAMP via human SST5 receptor; read-out: SST5 potency
Method in brief: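 CHO-K1 cells stably expressing human SSTR5 were treated 20 min at 37 °C with compounds plus 1.6 μM NKH477 in HBSS, 0.5 mM HEPES pH 7.4, 0.1% BSA, 0.2 mM IBMX. Lysate cAMP measured by HTRF against a standard curve; EC50 from cAMP-versus-concentration plots.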

T1 sequence (P35346 whole entry): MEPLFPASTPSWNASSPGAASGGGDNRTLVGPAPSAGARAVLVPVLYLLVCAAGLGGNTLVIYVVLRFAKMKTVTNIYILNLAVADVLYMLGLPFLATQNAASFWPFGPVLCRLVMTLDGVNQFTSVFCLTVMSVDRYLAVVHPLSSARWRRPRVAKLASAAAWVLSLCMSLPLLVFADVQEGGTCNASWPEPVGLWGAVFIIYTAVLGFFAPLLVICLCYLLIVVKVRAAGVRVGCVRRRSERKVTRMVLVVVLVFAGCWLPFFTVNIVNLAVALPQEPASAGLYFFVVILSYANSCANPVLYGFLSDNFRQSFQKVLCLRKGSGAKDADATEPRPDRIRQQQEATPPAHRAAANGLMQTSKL

EC50	Compound
< 10 nM	Cc1cccc2[nH]c(-c3cncc(C(=O)N(C)C4CCCC4)c3N3CC[C@](C)(N)C3)nc12 [2-16, 4-[(3S)-3-amino-3-methylpyrrolidin-1-yl]-N-cyclopentyl-N-methyl-5-(4-methyl-1H-1,3-benzodiazol-2-yl)pyridine-3-carboxamide]
< 10 nM	Cc1cccc2[nH]c(-c3cncc(C(=O)NCC4CCC4)c3N3CC[C@](C)(N)C3)nc12 [2-31, 4-[(3S)-3-amino-3-methylpyrrolidin-1-yl]-N-(cyclobutylmethyl)-5-(4-methyl-1H-1,3-benzodiazol-2-yl)pyridine-3-carboxamide]
< 10 nM	C[C@]1(N)CCN(c2c(C(=O)NC(C3CC3)C3CC3)ccnc2-c2cc(F)cc(F)c2)C1 [3-4, 3-[(3S)-3-amino-3-methylpyrrolidin-1-yl]-N-(dicyclopropylmethyl)-2-(3,5-difluorophenyl)pyridine-4-carboxamide]
100 to 1000 nM	Cc1cccc2[nH]c(-c3cncc(C(=O)NCCO)c3N3CC[C@](C)(N)C3)nc12 [2-9, 4-[(3S)-3-amino-3-methylpyrrolidin-1-yl]-N-(2-hydroxyethyl)-5-(4-methyl-1H-1,3-benzodiazol-2-yl)pyridine-3-carboxamide]
100 to 1000 nM	C[C@H](NC(=O)c1ccnc(-c2cc(F)cc(F)c2)c1N1CC[C@](C)(N)C1)c1ccccc1 [3-3, 3-[(3S)-3-amino-3-methylpyrrolidin-1-yl]-2-(3,5-difluorophenyl)-N-[(1S)-1-phenylethyl]pyridine-4-carboxamide]
< 10 nM	Cc1cccc2[nH]c(-c3cncc(C(=O)NC(C)CC(F)(F)F)c3N3CC[C@](C)(N)C3)nc12 (stereo partly drawn) [2-32, 4-[(3S)-3-amino-3-methylpyrrolidin-1-yl]-5-(4-methyl-1H-1,3-benzodiazol-2-yl)-N-(4,4,4-trifluorobutan-2-yl)pyridine-3-carboxamide]
10 to 100 nM	Cc1cccc2[nH]c(-c3cncc(C(=O)N(C)C4CC4)c3N3CC[C@](C)(N)C3)nc12 [2-22, 4-[(3S)-3-amino-3-methylpyrrolidin-1-yl]-N-cyclopropyl-N-methyl-5-(4-methyl-1H-1,3-benzodiazol-2-yl)pyridine-3-carboxamide]
< 10 nM	Cc1cccc2[nH]c(-c3cncc(C(=O)NC(C)C4CC4)c3N3CC[C@](C)(N)C3)nc12 (stereo partly drawn) [2-14, 4-[(3S)-3-amino-3-methylpyrrolidin-1-yl]-N-(1-cyclopropylethyl)-5-(4-methyl-1H-1,3-benzodiazol-2-yl)pyridine-3-carboxamide]
< 10 nM	C[C@H](NC(=O)c1cncc(-c2nc3c(F)cccc3[nH]2)c1N1CC[C@](C)(N)C1)C(F)(F)F [2-24, 4-[(3S)-3-amino-3-methylpyrrolidin-1-yl]-5-(4-fluoro-1H-1,3-benzodiazol-2-yl)-N-[(2S)-1,1,1-trifluoropropan-2-yl]pyridine-3-carboxamide]
10 to 100 nM	Cc1cccc2[nH]c(-c3cncc(C(=O)N(C)CC4CC4)c3N3CC[C@](C)(N)C3)nc12 [2-23, 4-[(3S)-3-amino-3-methylpyrrolidin-1-yl]-N-(cyclopropylmethyl)-N-methyl-5-(4-methyl-1H-1,3-benzodiazol-2-yl)pyridine-3-carboxamide]
< 10 nM	CC[C@H](NC(=O)c1cncc(-c2nc3c(C)cccc3[nH]2)c1N1CC[C@](C)(N)C1)C(F)(F)F [2-40, 4-[(3S)-3-amino-3-methylpyrrolidin-1-yl]-5-(4-methyl-1H-1,3-benzodiazol-2-yl)-N-[(2S)-1,1,1-trifluorobutan-2-yl]pyridine-3-carboxamide]
10 to 100 nM	C[C@H](NC(=O)c1ccnc(-c2cc(F)cc(F)c2)c1N1CC[C@](C)(N)C1)C1CC1 [3-1, 3-[(3S)-3-amino-3-methylpyrrolidin-1-yl]-N-[(1S)-1-cyclopropylethyl]-2-(3,5-difluorophenyl)pyridine-4-carboxamide]
10 to 100 nM	Cc1cccc2[nH]c(-c3cncc(C(=O)NC4CCC(F)(F)CC4)c3N3CC[C@](C)(N)C3)nc12 [2-17, 4-[(3S)-3-amino-3-methylpyrrolidin-1-yl]-N-(4,4-difluorocyclohexyl)-5-(4-methyl-1H-1,3-benzodiazol-2-yl)pyridine-3-carboxamide]
10 to 100 nM	C[C@]1(N)CCN(c2c(C(=O)NC34CCC(CC3)C4)ccnc2-c2cc(F)cc(F)c2)C1 [3-5, 3-[(3S)-3-amino-3-methylpyrrolidin-1-yl]-N-{bicyclo[2.2.1]heptan-1-yl}-2-(3,5-difluorophenyl)pyridine-4-carboxamide]
< 10 nM	C[C@H](NC(=O)c1ncc(C#N)c(-c2cc(F)cc(F)c2)c1N1CC[C@](C)(N)C1)C1CC1 [4-3, 3-[(3S)-3-amino-3-methylpyrrolidin-1-yl]-5-cyano-N-[(1S)-1-cyclopropylethyl]-4-(3,5-difluorophenyl)pyridine-2-carboxamide]

Further lines, the compound ahead of its results:

Compound	EC50
CC1(C)CC1CNC(=O)c1cncc(-c2cc(F)cc(F)c2)c1N1CC[C@](C)(N)C1 (stereo partly drawn) [1-43, 4-[(3S)-3-amino-3-methylpyrrolidin-1-yl]-5-(3,5-difluorophenyl)-N-[(2,2-dimethylcyclopropyl)methyl]pyridine-3-carboxamide]	< 10 nM
N#Cc1ncc(C(=O)NC23CC(C2)C3)c(N2CC[C@](N)(CO)C2)c1-c1cc(F)cc(F)c1 (single isomer, unassigned) [1-99]	> 1000 nM
N-(adamantan-1-yl)-3-[(3S)-3-amino-3-methylpyrrolidin-1-yl]-2-(3,5-difluorophenyl)pyridine-4-carboxamide [3-7]	10 to 100 nM
COc1ncc(C(=O)N2CCC(F)(F)CC2)c(N2CC[C@H](N)C2)c1-c1cc(F)cc(F)c1 [1-236, (3S)-1-[3-(3,5-difluorophenyl)-5-(4,4-difluoropiperidine-1-carbonyl)-2-methoxypyridin-4-yl]pyrrolidin-3-amine]	> 1000 nM
CC1(NC(=O)c2cncc(-c3cccc(C#N)c3)c2N2CC[C@H](N)C2)CCC1 [1-8, 4-[(3S)-3-aminopyrrolidin-1-yl]-5-(3-cyanophenyl)-N-(1-methylcyclobutyl)pyridine-3-carboxamide]	100 to 1000 nM
CC(N)C1CN(c2c(C(=O)NC34CC(C3)C4)cncc2-c2cc(F)cc(F)c2)C1 (stereo not shown) [1-63, 4-[3-(1-aminoethyl)azetidin-1-yl]-N-{bicyclo[1.1.1]pentan-1-yl}-5-(3,5-difluorophenyl)pyridine-3-carboxamide]	10 to 100 nM
N#Cc1cccc(-c2cncc(C(=O)NCc3ccccc3)c2N2CC[C@H](N)C2)c1 [1-9, 4-[(3S)-3-aminopyrrolidin-1-yl]-N-benzyl-5-(3-cyanophenyl)pyridine-3-carboxamide]	100 to 1000 nM
COc1ncc(C(=O)NC2CCC(C(F)(F)F)CC2)c(N2CC[C@H](N)C2)c1-c1cc(F)cc(F)c1 (stereo partly drawn) [1-193, 4-[(3S)-3-aminopyrrolidin-1-yl]-5-(3,5-difluorophenyl)-6-methoxy-N-[4-(trifluoromethyl)cyclohexyl]pyridine-3-carboxamide]	100 to 1000 nM
COc1ncc(C(=O)NC2CCC(F)(F)CC2)c(N2CC[C@](C)(N)C2)c1-c1cc(F)cc(F)c1 [1-144, 4-[(3S)-3-amino-3-methylpyrrolidin-1-yl]-N-(4,4-difluorocyclohexyl)-5-(3,5-difluorophenyl)-6-methoxypyridine-3-carboxamide]	< 10 nM
C[C@H](NC(=O)c1cnc(C#N)c(-c2cc(F)cc(F)c2)c1N1CC[C@H](N)C1)c1ccccc1 [1-97, 4-[(3S)-3-aminopyrrolidin-1-yl]-6-cyano-5-(3,5-difluorophenyl)-N-[(1S)-1-phenylethyl]pyridine-3-carboxamide]	< 10 nM
CC1(CNC(=O)c2cncc(-c3cc(F)cc(F)c3)c2N2CC[C@](C)(N)C2)CC1 [1-32, 4-[(3S)-3-amino-3-methylpyrrolidin-1-yl]-5-(3,5-difluorophenyl)-N-[(1-methylcyclopropyl)methyl]pyridine-3-carboxamide]	< 10 nM
C[C@]1(N)CCN(c2c(C(=O)N[C@H]3C[C@H](F)C3)cncc2-c2cc(F)cc(F)c2)C1 [1-55]	< 10 nM
COC[C@]1(N)CCN(c2c(C(=O)N[C@@H](C)C3CC3)cnc(C#N)c2-c2cc(F)cc(F)c2)C1 [1-117, 4-[(3S)-3-amino-3-(methoxymethyl)pyrrolidin-1-yl]-6-cyano-N-[(1S)-1-cyclopropylethyl]-5-(3,5-difluorophenyl)pyridine-3-carboxamide]	100 to 1000 nM
CC(C)C(NC(=O)c1cncc(-c2cc(F)cc(F)c2)c1N1CC[C@](C)(N)C1)C(F)(F)F (stereo partly drawn) [1-45, 4-[(3S)-3-amino-3-methylpyrrolidin-1-yl]-5-(3,5-difluorophenyl)-N-(1,1,1-trifluoro-3-methylbutan-2-yl)pyridine-3-carboxamide]	< 10 nM
N#Cc1ncc(C(=O)NC23CC(C2)C3)c(N2C[C@H](N)[C@@H](F)C2)c1-c1cc(F)cc(F)c1 (single isomer, unassigned) [1-102]	10 to 100 nM
N#Cc1ncc(C(=O)N2CCCCC2)c(N2CC[C@H](N)C2)c1-c1cc(F)cc(F)c1 [1-80, 4-[(3S)-3-aminopyrrolidin-1-yl]-3-(3,5-difluorophenyl)-5-(piperidine-1-carbonyl)pyridine-2-carbonitrile]	100 to 1000 nM
CC(C)C(C)NC(=O)c1cncc(-c2cc(F)cc(F)c2)c1N1CC[C@](C)(N)C1 (stereo partly drawn) [1-38, 4-[(3S)-3-amino-3-methylpyrrolidin-1-yl]-5-(3,5-difluorophenyl)-N-(3-methylbutan-2-yl)pyridine-3-carboxamide]	< 10 nM
C[C@H](NC(=O)c1cnc(C(F)(F)F)c(-c2cc(F)cc(F)c2)c1N1CC[C@](C)(N)C1)C1CC1 [1-189, 4-[(3S)-3-amino-3-methylpyrrolidin-1-yl]-N-[(1S)-1-cyclopropylethyl]-5-(3,5-difluorophenyl)-6-(trifluoromethyl)pyridine-3-carboxamide]	< 10 nM
COc1ncc(C(=O)NC(C2CC2)C(F)(F)F)c(N2CC[C@H](N)C2)c1-c1cc(F)cc(F)c1 (stereo partly drawn) [1-194, 4-[(3S)-3-aminopyrrolidin-1-yl]-N-(1-cyclopropyl-2,2,2-trifluoroethyl)-5-(3,5-difluorophenyl)-6-methoxypyridine-3-carboxamide]	< 10 nM

— patent publication US12600709B2, “Nonpeptide somatostatin type 5 receptor agonists and uses thereof” (Crinetics Pharmaceuticals, Inc., priority 2019, dated 2026)
